Data on 2 compounds can be found in US8084489B2 (Eli Lilly and Company, priority 2005, dated 2011).

pKi: −log10 of the molar value.

The assay addresses cloned human glucagon receptor (Homo sapiens, UniProt P47871). The experiment in a line: Glucagon Receptor (hGlucR) Binding Assay.

For orientation: pKi means the negative decadic logarithm of the Ki, by convention in mol/L. A higher pKi goes with a small Ki.

Sequence of cloned human glucagon receptor (P47871 26-477): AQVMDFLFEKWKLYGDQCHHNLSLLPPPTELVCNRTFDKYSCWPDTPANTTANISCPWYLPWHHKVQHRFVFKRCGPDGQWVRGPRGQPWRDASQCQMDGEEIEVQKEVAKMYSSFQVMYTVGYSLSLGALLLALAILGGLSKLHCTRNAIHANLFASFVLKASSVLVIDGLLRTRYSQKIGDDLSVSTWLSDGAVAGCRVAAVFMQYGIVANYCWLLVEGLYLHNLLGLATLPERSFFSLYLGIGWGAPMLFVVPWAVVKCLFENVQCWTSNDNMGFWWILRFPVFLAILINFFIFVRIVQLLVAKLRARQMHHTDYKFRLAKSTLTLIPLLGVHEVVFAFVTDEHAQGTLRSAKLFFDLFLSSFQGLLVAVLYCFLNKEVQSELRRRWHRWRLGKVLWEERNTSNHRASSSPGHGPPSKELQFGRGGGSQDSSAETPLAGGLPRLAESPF
Experimental: This plasmid DNA was transfected into 293 HEK cells and selected with 200 ug/ml Hygromycin.
Crude plasma membranes are prepared using cells from suspension culture. The cells are lysed on ice in hypotonic buffer containing 25 mM Tris HCL, pH 7.5, 1 mM MgCl2, DNAse1, 20 u/ml, and Roche Complete Inhibitors-without EDTA. The cell suspension is homogenized with a glass dounce homogenizer using a Teflon pestle for 25 strokes. The homogenate is centrifuged at 4 degrees C. at 1800×g for 15 mins. The supernate is collected and the pellet is resuspended in hypotonic buffer and rehomogenized. The mixture is centrifuged at 1800×g for 15 mins. The second supernate is combined with the first supernate. The combined supernates are recentrifuged at 1800×g for 15 mins to clarify. The clarified supernate is transferred to high speed tubes and centrifuged at 25000×g for 30 minutes at 4 degrees C. The membrane pellet is resuspended in homogenization buffer and stored as frozen aliquots at −80 degree C. freezer until needed.
The specific activity is 2200 Ci/mmol.
The binding buffer contains 25 mM Hepes, pH 7.4, 2.5 mM CaCl2, 1 mM MgCl2, 0.1% fatty acid free BSA, (ICN), 0.003% tween-20, and Roche Complete Inhibitors without EDTA. […] Test compounds are dissolved in DMSO and serially diluted in DMSO. […] Plates are read with a MicroBeta after 14 hours of settling time at room temp. […]

`CC(C)CC(Oc1ccc(-c2ccc(C(F)(F)F)cc2)cc1)c1ccc(C(=O)NCCC(=O)O)s1` (centres unmarked) had a pKi of 6.41.

`CC(C)CC(Oc1ccc(-c2ccc(C(C)(C)C)cc2)nc1)c1ccc(C(=O)NCCC(=O)O)s1` (centres unmarked): the pKi is 6.53.
